Measurements from US8362000B2, “Azetidinyl diamides as monoacylglycerol lipase inhibitors” (Janssen Pharmaceutica NV, priority 2009, dated 2013).
Residue numbers refer to the chain shown, from its start. pIC50, pKd: −log10 of the molar value. Like-named read-outs stand apart in the source and are kept apart here.

Columns and labels:
[1] = molecular target: T1, purified wild type MGL (wt-MGLL 6H-11-313) (Homo sapiens, UniProt Q99685)
T1 sequence (Q99685 1-303): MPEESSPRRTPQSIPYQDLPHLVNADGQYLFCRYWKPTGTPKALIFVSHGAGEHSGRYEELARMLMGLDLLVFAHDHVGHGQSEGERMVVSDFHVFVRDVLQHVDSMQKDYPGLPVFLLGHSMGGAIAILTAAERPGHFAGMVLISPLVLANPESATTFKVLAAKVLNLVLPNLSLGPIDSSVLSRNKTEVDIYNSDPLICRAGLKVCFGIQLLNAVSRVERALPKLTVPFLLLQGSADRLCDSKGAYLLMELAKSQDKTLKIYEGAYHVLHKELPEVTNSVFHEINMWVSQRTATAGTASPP

[2] = molecular target: T2, MGL (Rattus norvegicus, UniProt Q8R431); assay: 2-AG accumulation assay in rat brain homogenate; assay type: biochemical; conditions: rat brain homogenate; compound 1 μM; 2-AG accumulation as percent of vehicle; read-out: Rat Brain 2AG % VehCntrl (%) @ 1 μM
T2 construct: one g rat brain was homogenized using a Polytron homogenizer; from tissue; host or cells: rat brain homogenate
T2 sequence (Q8R431 1-303): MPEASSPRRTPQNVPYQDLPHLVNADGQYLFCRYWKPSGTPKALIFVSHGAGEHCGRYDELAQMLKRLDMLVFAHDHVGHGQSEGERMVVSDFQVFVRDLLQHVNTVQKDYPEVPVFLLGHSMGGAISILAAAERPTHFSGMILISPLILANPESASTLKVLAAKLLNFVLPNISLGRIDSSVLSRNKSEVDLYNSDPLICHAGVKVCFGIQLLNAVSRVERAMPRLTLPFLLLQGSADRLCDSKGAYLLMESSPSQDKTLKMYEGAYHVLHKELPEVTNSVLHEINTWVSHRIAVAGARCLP

[3] = molecular target: T3, mutant MGL (Homo sapiens, UniProt Q99685, L169S/L176S); assay: MGL ThermoFluor assay - mutant; assay type: binding; conditions: for Kd: read-out: MGL mutant ThermoFluor qKd (μM) (using qNMR conc.)
T3 sequence (Q99685 1-303 L169S/L176S): T1 sequence (Q99685 1-303) with L169S, L176S

[4] = ThermoFluor concentration-response, read-out: MGL mutant ThermoFluor Kd
[5] = ThermoFluor, compound concentration measured by qNMR
[6] = ThermoFluor, compound concentration measured by qNMR, read-out: MGL mutant ThermoFluor qKd (using qNMR conc.)
[7] = ThermoFluor thermal stability binding assay, read-out: MGL mutant ThermoFluor Kd

Row | pIC50 [1] | 2-AG accumulation, % of vehicle control at 1 µM [2] [%] | pKd [3, 4] | Kd [3, 5] [µM] | pKd [3, 6] | pKd [3, 7] | pKd ([3]; compound concentration measured by qNMR, read-out: MGL mutant ThermoFluor qKd (using qNMR conc.)) | Structure (SMILES)
1 | 7.66 | 210 | 7.52 | – | – | – | – | Cc1c(C(=O)N2CC(N3CCN(C(=O)c4ccccc4)CC3)C2)sc2ccc(-c3ccccc3)cc12 [Cpd 570, 1-{1-[(3-Methyl-5-phenyl-1-benzothiophen-2-yl)carbonyl]azetidin-3-yl}-4-(phenylcarbonyl)piperazine]
2 | 7.34 | 277 | – | 0.1 | – | – | – | O=C(c1ccccc1)N1CCN(C2CN(C(=O)c3ccc4c(ccn4-c4ccc(OC(F)(F)F)cc4)c3)C2)CC1 [Cpd 573]
3 | 7.28 | 207 | – | 0.026 | – | – | – | Cc1cn(-c2ccccc2)c2ccc(C(=O)N3CC(N4CCN(C(=O)c5ccccc5)CC4)C3)cc12 [Cpd 577]
4 | 7.16 | 179 | – | 0.118 | – | – | – | O=C(c1ccccc1)N1CCN(C2CN(C(=O)c3ccc4c(ccn4-c4cc(F)cc(F)c4)c3)C2)CC1 [Cpd 580]
5 | 7.24 | 301 | 7.27 | – | – | – | – | O=C(c1ccccc1)N1CCN(C2CN(C(=O)c3ccc4c(-c5ccc(C(F)(F)F)cc5)c[nH]c4c3)C2)CC1 [Cpd 634]
6 | 7.68 | 296 | 6.92 | – | – | – | – | CCCCCCCCCCCCCCCC(=O)N1CC(N2CCN(C(=O)c3nccs3)CC2)C1 [Cpd 636]
7 | 7.39 | 272 | 7.28 | – | – | – | – | O=C(c1nccs1)N1CCN(C2CN(C(=O)C3CCC(c4ccc(Cl)cc4)CC3)C2)CC1 (stereo not shown) [Cpd 637]
8 | > 8.30 | 397 | 6.93 | – | 6.87 | – | – | CCCCCCCC/C=C\CCCCCCCC(=O)N1CC(N2CCN(C(=O)c3nccs3)CC2)C1 [Cpd 641]
9 | 8.15 | 258 | 7.60 | – | – | – | – | O=C(c1ccc(S(=O)(=O)c2cccc(C(F)(F)F)c2)cc1)N1CC(N2CCN(C(=O)c3nccs3)CC2)C1 [Cpd 651]
10 | 8.15 | 389 | – | – | – | 7.40 | – | O=C(c1ccc2c(c1)Sc1ccccc1O2)N1CC(N2CCN(C(=O)c3cscn3)CC2)C1 [Cpd 654]
11 | 8.10 | 359 | 7.54 | – | – | – | – | CCCc1ccc(C(=O)N2CC(N3CCN(C(=O)c4nccs4)CC3)C2)cc1 [Cpd 655]
12 | 8.05 | 351 | – | – | 6.40 | – | – | CCCN(CCC)S(=O)(=O)c1ccc(C(=O)N2CC(N3CCN(C(=O)c4nccs4)CC3)C2)cc1 [Cpd 658]
13 | 8.05 | 576 | – | 0.006 | – | – | – | O=C(c1cscn1)N1CCN(C2CN(C(=O)c3sc4cc(F)c(C(F)(F)F)cc4c3Cl)C2)CC1 [Cpd 659]
14 | 8.00 | 410 | 7.19 | – | – | – | – | O=C(c1ccc(Oc2cccc(C(F)(F)F)c2)nc1)N1CC(N2CCN(C(=O)c3nccs3)CC2)C1 [Cpd 660]
15 | 8.00 | 764 | – | – | – | 7.33 | – | O=C(c1ccc2c(c1)CCN(c1ccccn1)C2)N1CC(N2CCN(C(=O)c3nccs3)CC2)C1 [Cpd 661]
16 | 7.96 | 498 | 8.22 | – | – | – | – | O=C(c1nccs1)N1CCN(C2CN(C(=O)c3sc4cc(Cl)ccc4c3C(F)(F)F)C2)CC1 [Cpd 664]
17 | 7.89 | 507 | – | – | – | 7.24 | – | O=C(c1ccc2c(c1)CCN(C(=O)c1cccs1)C2)N1CC(N2CCN(C(=O)c3nccs3)CC2)C1 [Cpd 665]
18 | 7.85 | 856 | 7.89 | – | – | – | – | O=C(c1ccc2c(c1)C1C=CCC1C(c1cccc(Cl)c1)N2)N1CC(N2CCN(C(=O)c3nccs3)CC2)C1 (stereo not shown) [Cpd 667]

Row | pIC50 [1] | 2-AG accumulation, % of vehicle control at 1 µM [2] [%] | pKd [3, 4] | Kd [3, 5] [µM] | pKd [3, 6] | pKd [3, 7] | pKd ([3]; compound concentration measured by qNMR, read-out: MGL mutant ThermoFluor qKd (using qNMR conc.)) | Structure (SMILES)
19 | 7.82 | 679 | – | – | – | 7.60 | – | O=C(c1ccc2c(c1)CCN(c1ncccn1)C2)N1CC(N2CCN(C(=O)c3nccs3)CC2)C1 [Cpd 668]
20 | 7.82 | 583 | 8.30 | – | – | – | – | O=C(c1ccc(N2CCCC2)cc1)N1CC(N2CCN(C(=O)c3nccs3)CC2)C1 [Cpd 669]
21 | 7.77 | 268 | 7.80 | – | – | – | – | CC(C)(C)c1ccc(C(=O)N2CC(N3CCN(C(=O)c4nccs4)CC3)C2)cc1 [Cpd 672]
22 | 7.77 | 280 | 7.30 | – | – | – | – | O=C(c1cscn1)N1CCN(C2CN(C(=O)c3sc4ccc(Cl)cc4c3C(F)(F)F)C2)CC1 [Cpd 673]
23 | 7.72 | 330 | – | – | 7.60 | – | – | O=C(c1nccs1)N1CCN(C2CN(C(=O)c3[nH]c4nc(C(F)(F)F)ccc4c3Br)C2)CC1 [Cpd 675]
24 | 7.68 | 437 | 7.54 | – | – | – | – | O=C(c1cc2cc(C(F)(F)F)ccc2s1)N1CCN(C2CN(C(=O)c3nccs3)C2)CC1 [Cpd 676, 1-[1-(1,3-Thiazol-2-ylcarbonyl)azetidin-3-yl]-4-{[5-(trifluoromethyl)-1-benzothiophen-2-yl]carbonyl}piperazine]
25 | 7.68 | 141 | – | – | – | – | 6.36 | O=C(c1ccc(Sc2cccc(Cl)c2)cc1)N1CC(N2CCN(C(=O)C(F)(F)F)CC2)C1 [Cpd 677]
26 | 7.66 | 234 | 7.51 | – | – | – | – | O=C(c1ccc2c(c1)Sc1ccccc1O2)N1CC(N2CCN(C(=O)c3ccc[nH]3)CC2)C1 [Cpd 678, 1-[1-(Phenoxathiin-2-ylcarbonyl)azetidin-3-yl]-4-(1H-pyrrol-2-ylcarbonyl)piperazine]
27 | 7.60 | 356 | – | – | – | 7.28 | – | O=C(c1ccc2c(c1)CCN(Cc1ccccc1)C2)N1CC(N2CCN(C(=O)c3nccs3)CC2)C1 [Cpd 680, 2-Benzyl-6-({3-[4-(1,3-thiazol-2-ylcarbonyl)piperazin-1-yl]azetidin-1-yl}carbonyl)-1,2,3,4-tetrahydroisoquinoline]
28 | 7.57 | 406 | – | 0.067 | – | – | – | Cn1ccc2cc(C(=O)N3CC(N4CCN(C(=O)c5nccs5)CC4)C3)cc(Br)c21 [Cpd 681]
29 | 7.52 | 390 | – | – | 7.85 | – | – | Cc1c(C(=O)N2CC(N3CCN(C(=O)c4nccs4)CC3)C2)[nH]c2ccc(Br)cc12 [Cpd 682]
30 | 7.51 | 335 | 7.41 | – | – | – | – | O=C(c1ccc(Oc2cccc(Cl)c2)nc1)N1CC(N2CCN(C(=O)c3nccs3)CC2)C1 [Cpd 683]
31 | 7.51 | 645 | – | – | – | 8.40 | – | Cc1c(C(=O)N2CC(N3CCN(C(=O)c4nccs4)CC3)C2)sc2cc(F)ccc12 [Cpd 684]
32 | 7.48 | 756 | – | – | – | 7.17 | – | O=C(c1ccc2c(c1)CCN(C(=O)C1CCC(C(F)(F)F)CC1)C2)N1CC(N2CCN(C(=O)c3nccs3)CC2)C1 (stereo not shown) [Cpd 685]
33 | 7.41 | 552 | – | 0.002 | – | – | – | Cc1c(C(=O)N2CC(N3CCN(C(=O)c4nccs4)CC3)C2)sc2nc(C(F)(F)F)ccc12 [Cpd 686]
34 | 7.36 | 698 | 8.40 | – | – | – | – | CCCn1ccc2cc(C(=O)N3CC(N4CCN(C(=O)c5nccs5)CC4)C3)ccc21 [Cpd 687]
35 | 7.36 | 373 | 7.34 | – | – | – | – | Cc1c(C(=O)N2CC(N3CCN(C(=O)c4nccs4)CC3)C2)[nH]c2ccc(Cl)cc12 [Cpd 688, 5-Chloro-3-methyl-2-({3-[4-(1,3-thiazol-2-ylcarbonyl)piperazin-1-yl]azetidin-1-yl}carbonyl)-1H-indole]
36 | 7.34 | 367 | – | – | – | 6.98 | – | O=C(c1ccc2c(c1)CCN(C(=O)c1ccc[nH]1)C2)N1CC(N2CCN(C(=O)c3nccs3)CC2)C1 [Cpd 690]
